In US11000033B2, “Ketone or oxime compound, and herbicide” (NISSAN CHEMICAL CORPORATION, priority 2014, dated 2021):

How the values were obtained:
Type in all cases: in vivo
rapeseed = experiment: Test Example 5: effect on crop by foliage application, plastic box (symbol g); settings: 320 g/ha, 3 weeks after application
In short: (§1)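 Diluvial soil, sterilized and boxed (21 × 13 × 7 cm), received spot-sown seed covered by about 1.5 cm soil; plants were then greenhouse-grown at 25–30° C.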

Chenopodium album [1] = experiment: Test Example 5: herbicidal effect by foliage application, plastic box (symbol O); settings: 320 g/ha, 3 weeks after application
In short: (§2)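 Leaf-applied emulsion, water-diluted to a preset herbicide dose, on two-week-old seedlings raised in a 25° C. to 30° C. greenhouse; injury rated at 3 weeks using earlier criteria.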

Stellaria media [2] = experiment: Test Example 4: herbicidal effect by soil treatment (symbol P); settings: application herbicide amount 320 g/ha
In short: (§3)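 Seeds were sown in sterilized diluvial soil, covered with about 1.5 cm of soil, and the soil surface was sprayed with a water-diluted emulsion of the compound at a predetermined rate. Plants grew in a greenhouse at 25° C. to 30° C.; effects were scored visually 3 weeks after application.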

Lolium multiflorum Lam. = experiment: Test Example 5: herbicidal effect by foliage application, plastic box (symbol K); settings: 320 g/ha, 3 weeks after application
In short: as §2

Alopecurus myosuroides = experiment: Test Example 4: herbicidal effect by soil treatment (symbol J); settings: application herbicide amount 320 g/ha
In short: as §3

[3] = test system: Echinochloa crus-galli var. crus-galli; experiment: Test Example 5: herbicidal effect by foliage application, plastic box (symbol H); settings: 320 g/ha, 3 weeks after application
In short: as §2

Veronica persica = experiment: Test Example 4: herbicidal effect by soil treatment (symbol R); settings: application herbicide amount 320 g/ha
In short: as §3

transplanted rice plant = experiment: Test Example 1: effect on crop, application before weed generation in submerged conditions (symbol a); settings: application herbicide amount 320 g/ha
In short: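 Rice at 2.5 leaf stage transplanted into submerged soil (4 cm depth) sown with three weed species; herbicide applied before weed emergence.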

Avena fatua = experiment: Test Example 4: herbicidal effect by soil treatment (symbol I); settings: application herbicide amount 320 g/ha
In short: as §3

Stellaria media [4] = experiment: Test Example 5: herbicidal effect by foliage application, plastic box (symbol P); settings: 320 g/ha, 3 weeks after application
In short: as §2

Apera spica-venti = experiment: Test Example 4: herbicidal effect by soil treatment (symbol L); settings: application herbicide amount 320 g/ha
In short: as §3

corn = experiment: Test Example 5: effect on crop by foliage application, plastic box (symbol c); settings: 320 g/ha, 3 weeks after application
In short: as §1

Leptochloa chinensis = experiment: Test Example 3: herbicidal effect by foliage application, Wagner pot (symbol D); settings: application herbicide amount 320 g/ha
In short: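 Rating at 3 weeks post-spray, by defined criteria. Treatment: emulsion diluted with water to a predetermined amount, applied evenly to foliage of 14-day-old plants raised in alluvial soil flooded 0.1–0.5 cm deep at 25–30 °C, rice co-sown.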

Amaranthus retroflexus = experiment: Test Example 5: herbicidal effect by foliage application, plastic box (symbol N); settings: 320 g/ha, 3 weeks after application
In short: as §2

Setaria viridis = experiment: Test Example 4: herbicidal effect by soil treatment (symbol G); settings: application herbicide amount 320 g/ha
In short: as §3

Abutilon theophrasti = experiment: Test Example 5: herbicidal effect by foliage application, plastic box (symbol M); settings: 320 g/ha, 3 weeks after application
In short: as §2

Monochoria vaginalis = experiment: Test Example 1: herbicidal activity, application before weed generation in submerged conditions (symbol C); settings: application herbicide amount 320 g/ha
In short: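 Pre-emergence, paddy conditions: emulsifiable formulation diluted in water, dosed onto floodwater (4 cm depth) on sowing day. Alluvial soil; weeds sown mixed; rice transplanted at 2.5-leaf stage. Greenhouse 25–30 °C, 3 wk. Score 0–5 (5 = ≥90% kill, 0 = ≤5%).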

Chenopodium album [5] = experiment: Test Example 4: herbicidal effect by soil treatment (symbol O); settings: application herbicide amount 320 g/ha
In short: as §3

Question: With CON=C(C)CC1CC(OC(=O)COc2ccc(OC)cc2)=C(c2c(C)cc(C)cc2C)C1=O (stereo not drawn) [1-069] as the compound, how does the “g: rapeseed, effect on crop grade” value (rapeseed) read?
Answer: 4 (Herbicidal ratio of 70% or higher and lower than 90%)

Question: What about the “O: Chenopodium album, herbicidal effect grade” value (Chenopodium album [1]) of the same compound?
Answer: 2 (Herbicidal ratio of 20% or higher and lower than 40%)

Question: And the “P (Stellaria media) herbicidal effect grade” value (Stellaria media [2])?
Answer: 0 (Herbicidal ratio of 5% or lower (almost no effect))

Question: And the “K: Lolium multiflorum Lam., herbicidal effect grade” value (Lolium multiflorum Lam.)?
Answer: 5 (Herbicidal ratio of 90% or more (almost completely withered))

Question: And the “J (Alopecurus myosuroides) herbicidal effect grade” value (Alopecurus myosuroides)?
Answer: 5 (Herbicidal ratio of 90% or more (almost completely withered))

Question: What about the “H: Echinochloa crus-galli var. crus-galli, herbicidal effect grade” value [3] of the same compound?
Answer: 5 (Herbicidal ratio of 90% or more (almost completely withered))

Question: And the “R (Veronica persica) herbicidal effect grade” value (Veronica persica)?
Answer: 0 (Herbicidal ratio of 5% or lower (almost no effect))

Question: And the “Effect grade on crop, a: transplanted rice plant” value (transplanted rice plant)?
Answer: 5 (Herbicidal ratio of 90% or more (almost completely withered))

Question: What about the “I (Avena fatua) herbicidal effect grade” value (Avena fatua) of the same compound?
Answer: 3 (Herbicidal ratio of 40% or higher and lower than 70%)

Question: And the “P: Stellaria media, herbicidal effect grade” value (Stellaria media [4])?
Answer: 3 (Herbicidal ratio of 40% or higher and lower than 70%)

Question: And the “L (Apera spica-venti) herbicidal effect grade” value (Apera spica-venti)?
Answer: 5 (Herbicidal ratio of 90% or more (almost completely withered))

Question: What about the “c: corn, effect on crop grade” value (corn) of the same compound?
Answer: 3 (Herbicidal ratio of 40% or higher and lower than 70%)

Question: And the “herbicidal effect on D (Leptochloa chinensis), grade 0-5” value (Leptochloa chinensis)?
Answer: 5 (Herbicidal ratio of 90% or more (almost completely withered))

Question: What about the “N: Amaranthus retroflexus, herbicidal effect grade” value (Amaranthus retroflexus) of the same compound?
Answer: 5 (Herbicidal ratio of 90% or more (almost completely withered))

Question: And the “G (Setaria viridis) herbicidal effect grade” value (Setaria viridis)?
Answer: 4 (Herbicidal ratio of 70% or higher and lower than 90%)

Question: And the “M: Abutilon theophrasti, herbicidal effect grade” value (Abutilon theophrasti)?
Answer: 5 (Herbicidal ratio of 90% or more (almost completely withered))

Question: And the “Herbicidal effect grade, C: Monochoria vaginalis” value (Monochoria vaginalis)?
Answer: 2 (Herbicidal ratio of 20% or higher and lower than 40%)

Question: CON=C(C)CC1CC(OC(=O)COc2ccc(Cl)cc2Cl)=C(c2c(C)cc(C)cc2C)C1=O (stereo not drawn) [1-075] was tested. Which “P (Stellaria media) herbicidal effect grade” value (Stellaria media [2]) did it give?
Answer: 0 (Herbicidal ratio of 5% or lower (almost no effect))

Question: And the “K: Lolium multiflorum Lam., herbicidal effect (criteria 0-5)” value (Lolium multiflorum Lam.)?
Answer: 5 (Herbicidal ratio of 90% or more (almost completely withered))

Question: And the “J (Alopecurus myosuroides) herbicidal effect grade” value (Alopecurus myosuroides)?
Answer: 5 (Herbicidal ratio of 90% or more (almost completely withered))

Question: And the “H: Echinochloa crus-galli var. crus-galli, herbicidal effect (criteria 0-5)” value [3]?
Answer: 5 (Herbicidal ratio of 90% or more (almost completely withered))

Question: And the “O (Chenopodium album) herbicidal effect grade” value (Chenopodium album [5])?
Answer: 0 (Herbicidal ratio of 5% or lower (almost no effect))

Question: And the “Effect grade on crop, a: transplanted rice plant” value (transplanted rice plant)?
Answer: 5 (Herbicidal ratio of 90% or more (almost completely withered))

Question: What about the “P: Stellaria media, herbicidal effect (criteria 0-5)” value (Stellaria media [4]) of the same compound?
Answer: 1 (Herbicidal ratio of 5% or higher and lower than 20%)

Question: And the “L (Apera spica-venti) herbicidal effect grade” value (Apera spica-venti)?
Answer: 5 (Herbicidal ratio of 90% or more (almost completely withered))

Question: What about the “c: corn, effect on crop (criteria 0-5)” value (corn) of the same compound?
Answer: 4 (Herbicidal ratio of 70% or higher and lower than 90%)

Question: And the “herbicidal effect on D (Leptochloa chinensis), grade 0-5” value (Leptochloa chinensis)?
Answer: 5 (Herbicidal ratio of 90% or more (almost completely withered))

Question: What about the “N: Amaranthus retroflexus, herbicidal effect (criteria 0-5)” value (Amaranthus retroflexus) of the same compound?
Answer: 4 (Herbicidal ratio of 70% or higher and lower than 90%)

Question: And the “G (Setaria viridis) herbicidal effect grade” value (Setaria viridis)?
Answer: 5 (Herbicidal ratio of 90% or more (almost completely withered))

Question: And the “M: Abutilon theophrasti, herbicidal effect (criteria 0-5)” value (Abutilon theophrasti)?
Answer: 4 (Herbicidal ratio of 70% or higher and lower than 90%)
